The text below walks through data of patent US4547502A, “Dihydropyridines and their use in treating cardiac conditions and hypertension” (Pfizer Inc., priority 1982, dated 1985).

Structures are written as SMILES.

The assay concerns spirally cut strips of rat aorta. Nature of the assay: Inhibition of calcium-induced contraction of isolated rat aorta strips (concentration required to reduce the response by 50%). The following applies: 0.75 h, in vitro, 45 millimolar potassium, contraction by calcium chloride, final calcium 2 millimolar, retest after 45 minutes with compound present, read-out: IC50 (molar concentration of the compounds required to reduce the response by 50%). In kind it is cell-based. On the procedure: The ability of the compounds to inhibit the movement of calcium into the cell is shown by their effectiveness in reducing the response of isolated […] to an increase in calcium ion concentration in vitro. The test is performed by mounting spirally cut strips of rat aorta with one end fixed and the other attached to a force tranducer. The tissue is immersed in a bath of physiological saline solution containing potassium ions at a concentration of 45 millimolar and no calcium. Calcium chloride is added to the bath with a pipette to give a final calcium ion concentration of 2 millimolar. The change in tension caused by the resulting contraction of the tissue is noted. The bath is drained and replaced with fresh saline solution and, after 45 minutes, the test is repeated with the particular compound under test present in the saline solution. The concentration of compound required to reduce the response by 50% is recorded.
In the case of `CCOC(=O)C1=C(COCCN2CCN(c3nccc(=O)[nH]3)CC2)NC(C)=C(C(=O)OC)C1c1ccccc1Cl` (stereo not shown) [Example 3], the IC50 stood at 0.036 µM.
The figure for `CCOC(=O)C1=C(COCCN2CCN(c3nc(N)n[nH]3)CC2)NC(C)=C(C(=O)OC)C1c1ccccc1Cl` (stereo not shown) [Example 5, 2-{2-[4-(5-Amino-1,2,4-triazol-3-yl)piperazine-1-yl]ethoxymethyl}-4-(2-chlorophenyl)-3-ethoxycarbonyl-5-methoxycarbonyl-6-methyl-1,4-dihydropyridine, bis-maleate hemihydrate] is 0.038 µM; for `CCOC(=O)C1=C(COCCN2CCN(C3=NCCN3)CC2)NC(C)=C(C(=O)OC)C1c1ccccc1Cl` (stereo not shown) [Example 2] it is 0.1 µM; for `CCOC(=O)C1=C(COCCN2CCN(c3nc(N)nn3C)CC2)NC(C)=C(C(=O)OC)C1c1ccccc1Cl` (single isomer, unassigned) [Example 6 (more polar isomer), 2-[2-(4-{3-amino-1-methyl-1,2,4-triazol-5-yl}-piperazin-1-yl)ethoxymethyl]-4-(2-chlorophenyl)-3-ethoxycarbonyl-5-methoxycarbonyl-6-methyl-1,4-dihydropyridine hemihydrate] it is 0.1 µM.
Take `CCOC(=O)C1=C(COCCN2CCN(c3nccs3)CC2)NC(C)=C(C(=O)OC)C1c1ccccc1Cl` (stereo not shown) [Example 4]: the IC50 amounted to 0.015 µM.
For the compound `CCOC(=O)C1=C(COCCN2CCN(c3nc(N)n(C)n3)CC2)NC(C)=C(C(=O)OC)C1c1ccccc1Cl` (stereo not drawn) [Example 6 (least polar isomer), 2-[2-(4-{5-amino-1-methyl-1,2,4-triazol-3-yl}-piperazin-1-yl)ethoxymethyl]-4-(2-chlorophenyl)-3-ethoxycarbonyl-5-methoxycarbonyl-6-methyl-1,4-dihydropyridine], the IC50 is 0.026 µM.
Turning to `CCOC(=O)C1=C(COCCN2CCN(C3=NCCC3)CC2)NC(C)=C(C(=O)OC)C1c1ccccc1Cl` (stereo not shown) [Example 1, 2-[2-(4-(1-Pyrrolin-2-yl)-piperazin-1-yl)ethoxymethyl]-4-(2-chlorophenyl)-3-ethoxycarbonyl-5-methoxycarbonyl-6-methyl-1,4-dihydropyridine], the IC50 was 0.141 µM.
